Among the data in patent publication US12509449B2, “Anthelmintic compounds comprising a quinoline structure” (Intervet Inc., priority 2019, dated 2025) are minimal effective concentration and EC50 values, retold here.

One assay has as its system Ascaridia galli L3. Briefly: In vitro assay Ascaridia galli larval stage 3, minimum effective concentration. It is filed as cell-based. The conditions noted are these: 20 larvae per well, microscopic examination, read-out: MEC (minimum effective concentration) against Ascaridia galli L3. An excerpt:
(§1) […] galli (intestinal roundworm of chicken), larval stage 3 (“L3”); and Oesophagostumum dentatum (nodular worm of swine), larval stages 3 and 4 (respectively “L3” and “L4”) where suspended in a nutrient medium and distributed to 96 well plates with 20 larvae per well. The wells were spiked DMSO solutions of the compounds with declining concentration.

For assay [1], the target named is T1, human Maxi K channel (BK channel), KCNMA1 (KCa1.1) and beta1 (KCNMB1) subunits (Homo sapiens, UniProt Q12791).
T1 construct: expressed in transfected cells; host or cells: CHO K1
T1 sequence (Q12791 1-1178 isoform Q12791-5): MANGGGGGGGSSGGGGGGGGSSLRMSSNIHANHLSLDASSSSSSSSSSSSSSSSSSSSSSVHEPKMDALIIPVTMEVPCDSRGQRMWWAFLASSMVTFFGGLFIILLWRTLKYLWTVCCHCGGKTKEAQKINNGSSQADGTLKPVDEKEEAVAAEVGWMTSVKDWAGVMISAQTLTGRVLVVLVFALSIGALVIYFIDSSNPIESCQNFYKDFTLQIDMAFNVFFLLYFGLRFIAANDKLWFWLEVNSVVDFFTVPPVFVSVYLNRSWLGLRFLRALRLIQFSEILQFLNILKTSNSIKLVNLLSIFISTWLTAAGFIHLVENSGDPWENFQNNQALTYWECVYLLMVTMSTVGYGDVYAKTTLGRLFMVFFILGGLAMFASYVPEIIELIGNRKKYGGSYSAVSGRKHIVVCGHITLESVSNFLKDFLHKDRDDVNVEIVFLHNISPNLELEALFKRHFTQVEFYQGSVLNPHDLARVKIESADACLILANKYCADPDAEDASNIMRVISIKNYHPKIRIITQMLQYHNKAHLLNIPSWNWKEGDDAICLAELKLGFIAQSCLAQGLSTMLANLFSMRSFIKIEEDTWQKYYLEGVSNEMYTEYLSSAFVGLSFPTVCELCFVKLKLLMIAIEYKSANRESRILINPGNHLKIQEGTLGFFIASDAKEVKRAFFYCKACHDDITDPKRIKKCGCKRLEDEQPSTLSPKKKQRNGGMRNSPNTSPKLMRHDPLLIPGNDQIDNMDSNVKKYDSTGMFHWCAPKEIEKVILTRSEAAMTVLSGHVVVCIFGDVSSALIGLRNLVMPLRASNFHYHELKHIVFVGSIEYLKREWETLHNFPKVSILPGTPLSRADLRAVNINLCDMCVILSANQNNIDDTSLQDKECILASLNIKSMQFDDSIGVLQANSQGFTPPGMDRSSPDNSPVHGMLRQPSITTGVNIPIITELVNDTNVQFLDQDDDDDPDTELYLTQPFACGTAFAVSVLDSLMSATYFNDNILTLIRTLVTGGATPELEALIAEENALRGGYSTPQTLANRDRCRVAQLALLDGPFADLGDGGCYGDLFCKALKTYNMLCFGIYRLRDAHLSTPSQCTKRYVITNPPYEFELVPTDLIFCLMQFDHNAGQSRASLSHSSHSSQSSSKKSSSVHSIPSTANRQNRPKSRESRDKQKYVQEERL
T1 sequence (Q16558 whole entry partner): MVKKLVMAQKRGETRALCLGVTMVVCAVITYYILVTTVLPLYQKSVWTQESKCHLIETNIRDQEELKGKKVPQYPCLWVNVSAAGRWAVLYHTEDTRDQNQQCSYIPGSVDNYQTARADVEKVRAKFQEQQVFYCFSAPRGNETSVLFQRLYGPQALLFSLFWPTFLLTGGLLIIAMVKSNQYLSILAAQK
Description: Agonistic activity at the human Maxi K channel (BK channel), membrane potential (FLIPR) in transfected CHO K1 cells. It is filed as cell-based. The conditions noted are these: membrane potential dye, 70 mM KCl. The source says: A CHO K1 cell line was stably transfected with the KCNMA1 (KCa1.1, U11058) and beta1 (KCNMB1) subunits of the human Maxi K channel (Ponte et al, Molecular Pharmacology 2012, 81(4), 567-577).
The complete measurement takes 150 s.

The target of assay [2] is Caenorhabditis elegans slo-1a (Caenorhabditis elegans, UniProt Q95V25). Description: Agonistic activity at C. elegans Slo-1a, membrane potential (FLIPR) in transfected CHO K1 cells. The conditions noted are these: EC50 agonistic activity at C. elegans Slo-1a, membrane potential dye, 70 mM KCl.
Chain of Caenorhabditis elegans slo-1a (Q95V25 whole entry): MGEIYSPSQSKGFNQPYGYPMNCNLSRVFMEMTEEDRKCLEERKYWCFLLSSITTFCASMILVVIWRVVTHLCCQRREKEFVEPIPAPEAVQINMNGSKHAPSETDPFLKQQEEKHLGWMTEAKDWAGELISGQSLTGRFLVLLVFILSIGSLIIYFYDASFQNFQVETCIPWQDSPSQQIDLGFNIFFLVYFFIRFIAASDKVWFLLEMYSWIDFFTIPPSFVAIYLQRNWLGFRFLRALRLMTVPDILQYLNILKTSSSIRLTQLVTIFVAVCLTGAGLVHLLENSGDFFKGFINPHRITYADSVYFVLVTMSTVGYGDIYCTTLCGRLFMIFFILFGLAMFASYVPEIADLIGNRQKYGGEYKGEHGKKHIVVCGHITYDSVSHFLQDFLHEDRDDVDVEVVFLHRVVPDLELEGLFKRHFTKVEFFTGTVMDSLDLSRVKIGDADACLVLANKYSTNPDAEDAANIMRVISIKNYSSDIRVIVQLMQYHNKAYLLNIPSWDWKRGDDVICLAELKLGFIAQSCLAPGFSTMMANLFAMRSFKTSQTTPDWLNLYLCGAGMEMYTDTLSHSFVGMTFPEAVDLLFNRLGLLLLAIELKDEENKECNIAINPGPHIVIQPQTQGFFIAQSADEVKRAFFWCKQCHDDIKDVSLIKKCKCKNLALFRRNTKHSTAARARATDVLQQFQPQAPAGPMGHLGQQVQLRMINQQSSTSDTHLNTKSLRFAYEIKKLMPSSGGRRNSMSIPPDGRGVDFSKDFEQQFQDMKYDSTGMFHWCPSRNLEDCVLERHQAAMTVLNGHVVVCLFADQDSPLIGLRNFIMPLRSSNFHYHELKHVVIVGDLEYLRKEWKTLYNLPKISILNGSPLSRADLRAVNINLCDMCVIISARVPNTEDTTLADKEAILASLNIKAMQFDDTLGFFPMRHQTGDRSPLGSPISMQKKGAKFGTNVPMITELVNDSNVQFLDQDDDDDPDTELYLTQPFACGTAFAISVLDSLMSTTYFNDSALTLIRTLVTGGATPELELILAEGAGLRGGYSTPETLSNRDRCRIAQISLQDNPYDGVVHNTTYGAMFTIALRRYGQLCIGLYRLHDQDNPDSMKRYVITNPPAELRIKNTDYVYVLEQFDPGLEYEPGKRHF
Description: A CHO K1 cell line stably transfected with the Caenorhabditis elegans slo-1a (accession no Y51A2D.19a) was established. Cells were seeded in microtiter plates (black 384-well MTP, clear bottom) in a concentration of 10,000 cells/well in 25 μl medium and cultured for 20 to 24 hours at 37° C. and 5% CO2. The cell medium was removed, and the cells washed with Tyrode's solution. 1 of FMP-dye Blue-Tyrode's was added to each well and incubated at room temperature for 30 min.
For the membrane potential measurements, the prepared cell plate and substance plate were placed in the FLIPR Tetra (Molecular Devices). The baseline measurement of the fluorescence was stared for 20 sec (Exc. 510-545 nm, Emm. 565-625 nm). The cells were depolarized by addition of 25p of the diluted test compounds (final assay concentration of the KCl-Tyrode: 70 mM KCl, 2 mM CaCl2), 1 mM MgCl2, 0.8 mM NaH2PO4, 5 mM Glucose, 28 mM Hepes, pH 7.4, including the voltage sensitive dye). The complete measurement takes 150 s.
EC50 values were determined in triplicate utilizing compound dilution series. The data were determined at least in two independent tests. The data were proceeded by using the ActivityBase XE Runner software (IDBS) for curve fitting and calculation of the half-maximal effective concentration.
Assay [3] concerns Oesophagostumum dentatum L3. Description: In vitro assay Oesophagostumum dentatum larval stage 3, minimum effective concentration. It is filed as cell-based. The following applies: 20 larvae per well, microscopic examination; read-out: MEC (minimum effective concentration) against Oesophagostumum dentatum L3.
Description: as §1

pEC50: −log10 of the molar value.

In general, pEC50 refers to the negative decadic logarithm of the EC50, by convention in mol/L. Read a low pEC50 as a high EC50. In the case of `CC(C(=O)Nc1cnc2c(-c3cccc(Cl)c3Cl)cccc2c1N(C)C)c1cccc(N(C)C)c1` (stereo not drawn) [Compound 50], in the assay on Ascaridia galli L3, the minimal effective concentration was not above 50 µM. Also, the pEC50 in assay [1] was less than 4.52.

With `COc1c(NC(=O)C2CCCc3ccccc32)cnc2c(-c3cccc(Cl)c3Cl)cccc12` (stereo not drawn) [Compound 14], the pEC50 in assay [2] was more than 6.00; in assay [1], less than 4.52. In the assay with Ascaridia galli L3, the minimal effective concentration was not above 50 µM.

Turning to `CCc1c(NC(=O)c2cccc3ccccc23)cnc2c(-c3cc(Cl)cc(Cl)c3)cccc12` [Compound 199], the values for the pEC50 in assay [2] and in assay [1] were more than 5.00 and less than 4.52, respectively. Further, in the assay on Ascaridia galli L3, the minimal effective concentration was not above 50 µM.

As to `C=C(C)c1c(NC(=O)c2cccc3ccccc23)cnc2c(-c3cc(Cl)cc(Cl)c3)cccc12` [Compound 200], the minimal effective concentration in the assay with Ascaridia galli L3 was not above 50 µM. In addition, in assay [1], the pEC50 is less than 4.52.

`O=C(Nc1cnc2c(-c3cc(Cl)cc(Cl)c3)c(F)ccc2c1N1CCOCC1)C1CCc2ccccc21` (stereo not drawn) [Compound 136]: the pEC50 was more than 5.00 in assay [2] and less than 4.52 in assay [1]. The minimal effective concentration with Ascaridia galli L3 is not above 50 µM.

As to `Cc1c(NC(=O)C2CCOc3ccccc32)cnc2c(-c3cc(Cl)cc(Cl)c3)cccc12` (stereo not drawn) [Compound 194], the negative logarithm of the EC50 (pEC50) was more than 5.00 in assay [2] and less than 4.52 in assay [1]. The minimal effective concentration in the assay on Ascaridia galli L3 was not above 50 µM.

For `CC(C(=O)Nc1cnc2c(-c3cccc(Cl)c3Cl)cccc2c1N1CCOCC1)c1ccccc1` (stereo not drawn) [Compound 21], the values for the pEC50 in assay [2] and in assay [1] were more than 5.00 and less than 4.52, respectively. The minimal effective concentration in the assay with Ascaridia galli L3 was not above 50 µM.

For the molecule `COc1c(NC(=O)C2CCOc3ccccc32)cnc2c(-c3cccc(Cl)c3Cl)cccc12` (stereo not drawn) [Compound 15], the values for the pEC50 in assay [2] and in assay [1] were more than 6.00 and less than 4.52, respectively. The minimal effective concentration with Ascaridia galli L3 is not above 50 µM.

With `O=C(Nc1cnc2c(-c3cc(Cl)cc(Cl)c3)cccc2c1O)c1cccc2ccccc12` [Compound 66], in the assay on Ascaridia galli L3, the minimal effective concentration is not above 50 µM. The molecule further gave a pEC50 in assay [1] of less than 4.52.

For `CC(C)N(C)c1c(NC(=O)C2CCOc3ccccc32)cnc2c(-c3cccc(Cl)c3Cl)cccc12` (stereo not drawn) [Compound 89], the minimal effective concentration with Ascaridia galli L3 was not above 50 µM. The molecule further had a pEC50 in assay [1] of less than 4.52.

Turning to `CN(C)c1c(NC(=O)C2CCOc3ccccc32)cnc2c(-c3cc(F)c(F)c(F)c3)cccc12` (stereo not drawn) [Compound 39], the figures for the pEC50 in assay [2] and in assay [1] were more than 5.00 and less than 4.52, respectively. In the assay with Ascaridia galli L3, the minimal effective concentration is not above 50 µM.

Consider `COc1c(NC(=O)C2CCCc3ccccc32)cnc2c(-c3cc(Cl)cc(Cl)c3)cccc12` (stereo not drawn) [Compound 69], for which the pEC50 in assay [2] is more than 6.00; in assay [1], less than 4.52. Also, in the assay with Ascaridia galli L3, the minimal effective concentration was not above 50 µM.

Turning to `COc1c(NC(=O)[C@H]2CCCc3ccccc32)cnc2c(-c3cc(Cl)cc(Cl)c3)cccc12` [Compound 155], the pEC50 in assay [2] is more than 6.00; in assay [1], less than 4.52. The minimal effective concentration with Ascaridia galli L3 was not above 50 µM.

As to `COc1c(NC(=O)C2CCc3ccccc32)cnc2c(-c3cccc(Cl)c3Cl)cccc12` (stereo not drawn) [Compound 16], the pEC50 in assay [2] is more than 6.00; in assay [1], less than 4.52. In addition, in the assay on Ascaridia galli L3, the minimal effective concentration is not above 50 µM.

With `CN(C)c1c(NC(=O)C2CCOc3ccccc32)cnc2c(-c3cccc(Cl)c3Cl)cccc12` (stereo not drawn) [Compound 12], the pEC50 in assay [2] was more than 6.00; in assay [1] it was less than 4.52. Besides, in the assay with Ascaridia galli L3, the minimal effective concentration is not above 50 µM.

For `Cc1c(NC(=O)c2cccc3ccccc23)cnc2c(-c3cc(Cl)cc(Cl)c3)cccc12` [Compound 198], in the assay with Ascaridia galli L3, the minimal effective concentration is not above 50 µM. In assay [1], this molecule showed a pEC50 of less than 4.52.

Take `CCNc1c(NC(=O)C2CCCc3ccccc32)cnc2c(-c3cccc(Cl)c3Cl)cccc12` (stereo not drawn) [Compound 96]: the minimal effective concentration in the assay on Ascaridia galli L3 was not above 50 µM. Also, the negative logarithm of the EC50 (pEC50) in assay [1] was 4.52 to 5.00.

With `CCc1c(NC(=O)[C@H]2CCCc3ccccc32)cnc2c(-c3cc(Cl)cc(Cl)c3)cccc12` [Compound 197], the pEC50 is more than 6.00 in assay [2] and less than 4.52 in assay [1]. Moreover, the minimal effective concentration with Ascaridia galli L3 was not above 50 µM.

For `COc1c(NC(=O)C2CCOc3ccccc32)cnc2c(-c3cc(Cl)cc(Cl)c3)c(F)ccc12` (stereo not drawn) [Compound 123], the negative-log EC50 (pEC50) in assay [2] was more than 6.00; in assay [1], less than 4.52. In addition, the minimal effective concentration in the assay with Ascaridia galli L3 is not above 50 µM.

For the molecule `CCc1c(NC(=O)C2CCOc3ccccc32)cnc2c(-c3cc(Cl)cc(Cl)c3)cccc12` (stereo not drawn) [Compound 195], the negative logarithm of the EC50 (pEC50) in assay [2] is more than 6.00; in assay [1], less than 4.52. In addition, in the assay on Ascaridia galli L3, the minimal effective concentration was not above 50 µM.

Consider `CN(CCO)c1c(NC(=O)C2CCCc3ccccc32)cnc2c(-c3cccc(Cl)c3Cl)cccc12` (stereo not drawn) [Compound 102], for which the pEC50 in assay [2] is more than 6.00; in assay [1], 4.52 to 5.00. The minimal effective concentration with Ascaridia galli L3 is not above 50 µM.

Take `CCc1c(NC(=O)c2ccnc3ccccc23)cnc2c(-c3cccc(Cl)c3Cl)cccc12` [Compound 104]: the minimal effective concentration with Ascaridia galli L3 was not above 50 µM. The molecule further gave a pEC50 in assay [1] of less than 4.52.

Consider `CC(C)Oc1c(NC(=O)c2cccc3ccccc23)cnc2c(-c3cc(Cl)cc(Cl)c3)cccc12` [Compound 81], for which, in assay [3], the minimal effective concentration was not above 50 µM. This molecule also showed a negative-log EC50 (pEC50) in assay [1] of less than 4.52.

As for `CN(C)c1c(NC(=O)C2CCOc3ccccc32)cnc2c(-c3cc(F)cc(F)c3)cccc12` (stereo not drawn) [Compound 38], the pEC50 was more than 5.00 in assay [2] and less than 4.52 in assay [1]. In addition, the minimal effective concentration with Ascaridia galli L3 is not above 50 µM.

Consider `Cc1ccc2c(N(C)C)c(NC(=O)[C@H]3CCc4ccccc43)cnc2c1-c1cc(Cl)cc(Cl)c1` [Compound 182], for which the values for the negative logarithm of the EC50 (pEC50) in assay [2] and in assay [1] were more than 6.00 and less than 4.52, respectively. The minimal effective concentration in the assay with Ascaridia galli L3 was not above 50 µM.

As for `CCOc1c(NC(=O)C2CCc3ccccc32)cnc2c(-c3cccc(Cl)c3Cl)c(F)ccc12` (stereo not drawn) [Compound 139], the pEC50 in assay [2] is more than 6.00; in assay [1], less than 4.52.

As to `CCOc1c(NC(=O)[C@H]2CCCc3ccccc32)cnc2c(-c3cc(Cl)cc(Cl)c3)cccc12` [Compound 154], the pEC50 is more than 6.00 in assay [2] and less than 4.52 in assay [1]. In the assay with Ascaridia galli L3, the minimal effective concentration is not above 50 µM.

In the case of `CC(C)Oc1c(NC(=O)C2CCCc3ccccc32)cnc2c(-c3cc(Cl)cc(Cl)c3)cccc12` (stereo not drawn) [Compound 76, N-(8-(3,5-dichlorophenyl)-4-isopropoxyquinolin-3-yl)-1,2,3,4-tetrahydro-naphthalene-1-carboxamide], in the assay with Ascaridia galli L3, the minimal effective concentration is not above 50 µM. Moreover, the pEC50 in assay [1] is less than 4.52.

For the molecule `CN(C)c1c(NC(=O)C2CCCc3ccccc32)cnc2c(-c3cc(Cl)cc(Cl)c3)c(F)ccc12` (stereo not drawn) [Compound 115], the pEC50 in assay [2] is more than 6.00; in assay [1], less than 4.52. Besides, the minimal effective concentration in the assay on Ascaridia galli L3 is not above 50 µM.

With `COc1c(NC(=O)C2CCCc3ccccc32)cnc2c(-c3cc(Cl)cc(Cl)c3)c(F)ccc12` (stereo not drawn) [Compound 113], the negative logarithm of the EC50 (pEC50) in assay [2] was more than 6.00; in assay [1] it was less than 4.52. For the same molecule, the minimal effective concentration in the assay with Ascaridia galli L3 is not above 50 µM.

In the case of `Nc1c(NC(=O)C2CCOc3ccccc32)cnc2c(-c3cccc(Cl)c3Cl)cccc12` (stereo not drawn) [Compound 84], the pEC50 in assay [2] was more than 5.00; in assay [1], less than 4.52. For the same molecule, the minimal effective concentration with Ascaridia galli L3 was not above 50 µM.

In the case of `CN(C)c1c(NC(=O)c2cccc3ccccc23)cnc2c(-c3cccc(Cl)c3Cl)c(F)ccc12` [Compound 150], the results for the negative logarithm of the EC50 (pEC50) in assay [2] and in assay [1] were more than 6.00 and 4.52 to 5.00, respectively.

As for `CCOc1c(NC(=O)c2cccc3ccccc23)cnc2c(-c3cc(Cl)cc(Cl)c3)c(F)ccc12` [Compound 144], the pEC50 in assay [2] is more than 5.00; in assay [1], less than 4.52.

On to `COc1c(NC(=O)[C@H]2CCCc3ccccc32)cnc2c(-c3cccc(Cl)c3Cl)c(C)ccc12` [Compound 183], for which the negative logarithm of the EC50 (pEC50) was more than 6.00 in assay [2] and less than 4.52 in assay [1].

`O=C(Nc1cnc2c(-c3cc(Cl)cc(Cl)c3)cccc2c1N1CCOCC1)C1CCOc2ccccc21` (stereo not drawn) [Compound 7]: the pEC50 was more than 5.00 in assay [2] and less than 4.52 in assay [1].

With `Cc1ccc2c(N(C)C)c(NC(=O)[C@H]3CCCc4ccccc43)cnc2c1-c1cccc(Cl)c1Cl` [Compound 184], the pEC50 was more than 6.00 in assay [2] and 4.52 to 5.00 in assay [1].

On to `CN(C)c1c(NC(=O)[C@H]2CCCc3ccccc32)cnc2c(-c3cc(Cl)cc(Cl)c3)c(Cl)ccc12` [Compound 186], for which the pEC50 in assay [2] is more than 6.00; in assay [1], less than 4.52.

As for `COc1c(NC(=O)C2CCOc3ccccc32)cnc2c(-c3cccc(Cl)c3Cl)c(C)ccc12` (stereo not drawn) [Compound 164], the negative-log EC50 (pEC50) in assay [2] was more than 5.00; in assay [1], less than 4.52. In the assay with Ascaridia galli L3, the minimal effective concentration is not above 50 µM.

For the molecule `CN(C)c1c(NC(=O)C2CCOc3ccccc32)cnc2c(-c3cc(Cl)cc(Cl)c3)cccc12` (stereo not drawn) [Compound 67], the pEC50 in assay [2] is more than 6.00; in assay [1] it was less than 4.52. Besides, the minimal effective concentration with Ascaridia galli L3 was not above 50 µM.

In the case of `CN(C)c1c(NC(=O)C2CCCc3ccccc32)cnc2c(-c3cc(Cl)cc(Cl)c3)cccc12` (stereo not drawn) [Compound 68], the pEC50 is more than 6.00 in assay [2] and less than 4.52 in assay [1].

For `CN(C)c1c(NC(=O)[C@H]2CCc3ccccc32)cnc2c(-c3cc(Cl)cc(Cl)c3)c(Cl)ccc12` [Compound 180], the figures for the negative-log EC50 (pEC50) in assay [2] and in assay [1] were more than 6.00 and less than 4.52, respectively. Besides, the minimal effective concentration in the assay on Ascaridia galli L3 is not above 50 µM.

As to `CN(C)c1c(NC(=O)C2CCc3ccccc32)cnc2c(-c3cc(Cl)cc(Cl)c3)c(F)ccc12` (stereo not drawn) [Compound 135], the pEC50 is more than 6.00 in assay [2] and less than 4.52 in assay [1].
